One assay deals with A549 cells. The experiment in a line: Cytotoxicity against A549 cells, Alamar Blue. Type of assay: cell-based. Particulars: Supplementary Table 1, compound 0.5 mM, percentage of controls (n=1); for viability at 500 µM: Homo sapiens, A549, 65 h. The method, then: (§1) Cytotoxic effects against HeLa and A549 cells were determined in a similar manner. Briefly, the cells were cultured in DMEM supplemented with 10% FCS and 2 mM L-Glutamine. Cells were plated at initial cell concentration of 2 × 10^4 cells/well and incubated with the compounds for ~65 hours prior to addition of Alamar Blue solution for a further 5 hours.
Background: Resazurin is reduced to fluorescent resorufin, in cell work by metabolically active cells.

A further assay relates to HeLa cells. Briefly: cells. Particulars: for viability at 500 µM / CC50: Homo sapiens, HeLa; for viability at 500 µM: 65 h; for HeLa Cells Alamar Blue: Supplementary Table 1; for CC50: read-out: HeLa ED50. Here is the method: as §1
The mark [1] stands for this setting: read-out: HeLa Cells Alamar Blue.
The mark [2] stands for this setting: compound 0.5 mM, percentage of controls, mean ± SD (n=3) or SE (n=2).
Setting [3] is: read-out: HeLa Cells Alamar Blue, Supplementary Table 1, compound 0.5 mM, percentage of controls, mean ± SD (n=3) or SE (n=2).

Molecules are shown by their SMILES. Read-outs that look alike come from different tables or passages of the source.

Consider `COC(=O)Cc1cccc(OC)c1` [compound 451, methyl 2‐(3‐methoxyphenyl)acetate], for which the viability at 500 µM with A549 cells turned out to be 93.2%; in the assay with HeLa cells (setting [1]) it was 101 ± 9.6%.
Taken in the same sequence, the figures for `COC(=O)c1cc2ccccc2cn1` [compound 514, methyl isoquinoline‐3‐carboxylate] were 65.3% and 79.5 ± 14.3%.
On to `OCc1ccc2c(c1)OCCO2` [compound 320, 2,3‐dihydro‐1,4‐benzodioxin‐6‐ylmethanol], for which the “A549 Cells Alamar Blue” value in the assay with A549 cells is recorded as 78.8 percentage of controls. Further, the “HeLa Cells Alamar Blue” value with HeLa cells (setting [2]) is 111.9 ± 16.4 percentage of controls.
Consider `CC(=O)Nc1ccccc1F` [compound 212, N1‐(2‐fluorophenyl)acetamide], for which the viability at 500 µM in the assay with A549 cells was 65.4%; in the assay with HeLa cells (setting [1]), 80.6 ± 6.6%.
For `CN(C(N)=S)c1ccccc1` [compound 325, N‐methyl‐N‐phenylthiourea], the viability at 500 µM in the assay with A549 cells was 82.7%; with HeLa cells (setting [1]) it was 33.9 ± 11.6%. The CC50 in the assay with HeLa cells came out at 415 ± 24 µM.
As for `COC(=O)c1scc(C)c1N` [compound 354, methyl 3‐amino‐4‐methylthiophene‐2‐carboxylate], the “A549 Cells Alamar Blue” value in the assay with A549 cells was 32.3 percentage of controls. Also, the “HeLa Cells Alamar Blue” value with HeLa cells (setting [2]) is recorded as 72.8 ± 8.6 percentage of controls.
Regarding `Oc1ccccc1N1CCOCC1` [compound 448, 2‐morpholinophenol], the viability at 500 µM in the assay on A549 cells came out at 71.1%; with HeLa cells (setting [1]) it was 93.3 ± 6.7%.
In the same order, the values of `Nc1ccc(Oc2ccccc2)nc1` [compound 507, 6‐phenoxy‐3‐pyridinamine] are 71.8% and 103 ± 15.4%.
On to `Cc1oc(-c2ccccc2)nc1CCO` [compound 643, 2‐(5‐methyl‐2‐phenyl‐1,3‐oxazol‐4‐yl)ethan‐1‐ol], for which the “A549 Cells Alamar Blue” value in the assay with A549 cells is reported as 104.4 percentage of controls. The “HeLa Cells Alamar Blue” value in the assay with HeLa cells (setting [2]) is reported as 45.5 ± 7.7 percentage of controls.
Consider `O=C(O)c1ccc(-c2cccnc2)cc1` [compound 612, 4‐pyrid‐3‐ylbenzoic acid], for which the viability at 500 µM was 74.2% in the assay on A549 cells and 77.2 ± 5.7% in the assay with HeLa cells (setting [3]).
As to `N#Cc1ccc(-c2ccccc2)nc1` [compound 456, 6‐phenylnicotinonitrile], the viability at 500 µM is 67.1% in the assay on A549 cells and 33.9 ± 6.9% in the assay on HeLa cells (setting [1]).
Regarding `c1ccc(-c2c[nH]cn2)cc1` [compound 149, 4‐phenyl‐1H‐imidazole], the figures for the viability at 500 µM in the assay on A549 cells and in the assay with HeLa cells (setting [1]) were 99.1% and 80.2 ± 11.7%, respectively.
`Nc1cccc(OC(F)(F)F)c1` [compound 419, 3‐(trifluoromethoxy)aniline]: the viability at 500 µM came out at 85% with A549 cells and 105 ± 11.1% in the assay with HeLa cells (setting [1]).
As for `Cc1cccc(N2CCNCC2)c1C` [compound 549, 1‐(2,3‐dimethylphenyl)piperazine], the viability at 500 µM in the assay on A549 cells was found to be 13.6%; in the assay with HeLa cells (setting [1]) it was 10.1 ± 5.7%.
As for `O=C(O)c1csc2ccccc12` [compound 432, 1‐benzothiophene‐3‐carboxylic acid], the viability at 500 µM was determined as 55.1% in the assay with A549 cells and 88.5 ± 12.2% in the assay on HeLa cells (setting [1]).
Taken in the same sequence, the figures for `CNCc1ccc(OC)cc1` [compound 199, N‐(4‐methoxybenzyl)‐N‐methylamine] were 71% and 95.1 ± 15.3%.
Take `Cn1nc(CO)cc1-c1ccccc1` [compound 525, (1‐methyl‐5‐phenyl‐1H‐pyrazol‐3‐yl)methanol]: the “A549 Cells Alamar Blue” value with A549 cells is 64.6 percentage of controls. Further, in the assay with HeLa cells (setting [2]), the “HeLa Cells Alamar Blue” value is 64.8 ± 9.8 percentage of controls.
Turning to `COC(=O)c1scc(C)c1Cl` [compound 551, methyl 3‐chloro‐4‐methylthiophene‐2‐carboxylate], the “A549 Cells Alamar Blue” value with A549 cells is 104.9 percentage of controls. Besides, the “HeLa Cells Alamar Blue” value with HeLa cells (setting [2]) is given as 90.7 ± 10.3 percentage of controls.
Turning to `OCc1ccc(Oc2ccccn2)cc1` [compound 629, [4‐(pyrid‐2‐yloxy)phenyl]methanol], the viability at 500 µM in the assay with A549 cells came to 96.1%; with HeLa cells (setting [1]), 84.1 ± 9.9%.
In the same order, the values of `Nc1cc(Cl)cc(Cl)c1` [compound 282, 3,5‐dichloroaniline] are 66.5% and 86.4 ± 8.5%.
Taken in the same sequence, the figures for `Cc1ccccc1S(N)(=O)=O` [compound 355, 2‐methylbenzene‐1‐sulfonamide] were 87.9% and 89.1 ± 16.6%.
With `NCc1ccccc1-n1cccc1` [compound 363, [2‐(1H‐pyrrol‐1‐yl)phenyl]methylamine], the viability at 500 µM in the assay on A549 cells was determined as 45.6%; with HeLa cells (setting [1]), 42.6 ± 11.7%.
As for `OCc1cccc(Oc2ccccn2)c1` [compound 630, [3‐(pyrid‐2‐yloxy)phenyl]methanol], the figures for the viability at 500 µM with A549 cells and in the assay on HeLa cells (setting [1]) were 98.3% and 80 ± 1%, respectively.
`NCc1ccc(-n2cccc2)cc1` [compound 365, 4‐(1H‐pyrrol‐1‐yl)benzylamine]: the viability at 500 µM in the assay with A549 cells was 94.4%; with HeLa cells (setting [1]), 50.9 ± 11%. In the assay on HeLa cells, the CC50 was 71.8 ± 3.7 µM.
Take `OCc1cc(-c2cccs2)on1` [compound 462, [5‐(2‐thienyl)‐3‐isoxazolyl]methanol]: the viability at 500 µM in the assay on A549 cells was 76.2%; in the assay on HeLa cells (setting [1]), 75.6 ± 5.9%.
Taken in the same sequence, the figures for `OCC1COc2ccccc2C1` (stereo not shown) [compound 300, 3,4‐dihydro‐2H‐chromen‐3‐ylmethanol] were 113% and 90 ± 16.3%.
With `N#CCCn1cccc1` [compound 50, 3‐(1H‐pyrrol‐1‐yl)propanenitrile], the viability at 500 µM with A549 cells is 140%; with HeLa cells (setting [1]), 75.4 ± 6.4%.
Regarding `COc1ccc(N)c(OC)c1` [compound 213, 2,4‐dimethoxyaniline], the viability at 500 µM in the assay with A549 cells is 61.2%; with HeLa cells (setting [1]) it was 14 ± 8.2%. The CC50 in the assay with HeLa cells is 710 ± 96 µM.
Consider `Nc1nsc(-c2ccccc2)n1` [compound 424, 5‐phenyl‐1,2,4‐thiadiazol‐3‐amine], for which the viability at 500 µM stood at 60.1% with A549 cells and 62.2 ± 15.4% in the assay on HeLa cells (setting [1]).
For `OCc1cccc(Cn2ccnc2)c1` [compound 527, [3‐(1H‐imidazol‐1‐ylmethyl)phenyl]methanol], in the assay with A549 cells, the “A549 Cells Alamar Blue” value was 69.2 percentage of controls. Besides, the “HeLa Cells Alamar Blue” value with HeLa cells (setting [2]) is on record as 80.7 ± 17.6 percentage of controls.
For the compound `Oc1ccc(-n2ccnc2)cc1` [compound 266, 4‐(1H‐imidazol‐1‐yl)phenol], the figures for the viability at 500 µM in the assay on A549 cells and in the assay on HeLa cells (setting [1]) were 108% and 83 ± 19.8%, respectively.
Turning to `NCc1ccc(CN2CCCCC2)cc1` [compound 658, [4‐(piperidinomethyl)phenyl]methylamine], in the assay on A549 cells, the “A549 Cells Alamar Blue” value is listed as 123.5 percentage of controls. The “HeLa Cells Alamar Blue” value in the assay with HeLa cells (setting [2]) is 22.8 ± 5.5 percentage of controls.
Regarding `Nc1ccc(C(F)(F)F)cc1` [compound 270, 4‐(trifluoromethyl)aniline], the viability at 500 µM in the assay with A549 cells was 104%; in the assay on HeLa cells (setting [1]), 21.8 ± 14.5%. Moreover, the CC50 with HeLa cells amounted to 206 ± 13 µM.
Taken in the same sequence, the figures for `Nc1ccccc1-c1cccnc1` [compound 348, 2‐pyridin‐3‐ylaniline] were 85.3%, 18.2 ± 10% and 21.8 ± 1.8 µM.
On to `Nc1cc(F)c(Cl)cc1N` [compound 269, 4-chloro-5-fluorobenzene-1,2-diamine], for which the viability at 500 µM in the assay with A549 cells is 50.4%; in the assay with HeLa cells (setting [1]), 23.4 ± 14.8%. Moreover, the CC50 in the assay with HeLa cells amounted to 431 ± 53 µM.
For `NCC1COc2ccccc2O1` (stereo not shown) [compound 309, 2,3‐dihydro‐1,4‐benzodioxin‐2‐ylmethylamine], the “A549 Cells Alamar Blue” value with A549 cells is 68.9 percentage of controls. The “HeLa Cells Alamar Blue” value in the assay with HeLa cells (setting [2]) is listed as 12.3 ± 8.8 percentage of controls.
Consider `OCc1ncoc1-c1ccccc1` [compound 397, (5‐phenyl‐1,3‐oxazol‐4‐yl)methanol], for which the viability at 500 µM came out at 56.4% in the assay with A549 cells and 18.2 ± 7.9% in the assay with HeLa cells (setting [1]).
In the same order, the values of `Cc1cccc(N)c1N` [compound 55, 3‐methylbenzene‐1,2‐diamine] are 26.5% and 11.2 ± 7.2%.
Taken in the same sequence, the figures for `CSc1ccccc1CN` [compound 217, 2‐(methylthio)benzylamine] were 70.3% and 27.1 ± 0.5%.
Taken in the same sequence, the figures for `O=C(O)c1ccncc1` [compound 60, isonicotinic acid] were 118% and 98.3 ± 12.5%.
On to `Oc1ccc(Oc2ccccc2)cc1` [compound 502, 4‐phenoxyphenol], for which the values for the viability at 500 µM in the assay with A549 cells and in the assay on HeLa cells (setting [3]) were 53.1% and 39.6 ± 16.6%, respectively.
Regarding `Nc1cccc(COc2ccccc2)c1` [compound 616, 3‐(phenoxymethyl)aniline], the values for the viability at 500 µM in the assay with A549 cells and in the assay with HeLa cells (setting [1]) were 57.5% and 80.5 ± 17.9%, respectively.
For `Cc1nc(CC(=O)O)cs1` [compound 243, 2‐(2‐methyl‐1,3‐thiazol‐4‐yl)acetic acid], the viability at 500 µM in the assay on A549 cells was found to be 113%; in the assay on HeLa cells (setting [1]) it was 99.5 ± 1.1%.
In the same order, the values of `COC(=O)c1ccccc1F` [compound 220, methyl 2‐fluorobenzoate] are 99.5% and 108 ± 17.6%.
On to `Cc1cc(C(F)(F)F)c(C#N)cn1` [compound 498, 6‐methyl‐4‐(trifluoromethyl)nicotinonitrile], for which, in the assay with A549 cells, the “A549 Cells Alamar Blue” value is recorded as 107.7 percentage of controls. In the assay with HeLa cells (setting [2]), the “HeLa Cells Alamar Blue” value is 102.9 ± 18.5 percentage of controls.
Regarding `O=C(O)CSc1ccc(Cl)cc1` [compound 641, 2‐[(4‐chlorophenyl)thio]acetic acid], the viability at 500 µM came to 119% in the assay on A549 cells and 105 ± 3.7% with HeLa cells (setting [1]).
As to `OCc1cccc(-c2cncnc2)c1` [compound 504, (3‐pyrimidin‐5‐ylphenyl)methanol], the viability at 500 µM in the assay on A549 cells came to 88.2%; in the assay on HeLa cells (setting [1]) it was 88.7 ± 9.9%.

For the origin of these results see paper PMC3199943, “Screening the MayBridge Rule of 3 Fragment Library for Compounds That Interact with the Trypanosoma brucei myo-Inositol-3-Phosphate Synthase and/or Show Trypanocidal Activity” (Molecular Biology International, 2011).
